{
  "source": "ChEMBL document CHEMBL3436046",
  "about": "“Predictive model for L-type channel inhibition: multichannel block in QT prolongation risk assessment” (J Appl Toxicol, 2012)",
  "key": {"[1]": {"target": "T1, Voltage-dependent L-type calcium channel subunit alpha-1C (Homo sapiens, UniProt Q13936)", "assay": "Inhibition of L-type calcium channel measured using […] ovary cells heterologically expressing alpha-1C subunit", "assay_type": "functional, cell-based, Cricetulus griseus, CHO", "design": "ca sol conc 0 mM, temp room"}, "[2]": {"target": "T2, Voltage-dependent L-type calcium channel subunit alpha-1C (Cavia porcellus, UniProt O35505)", "T2 sequence (O35505 whole entry)": "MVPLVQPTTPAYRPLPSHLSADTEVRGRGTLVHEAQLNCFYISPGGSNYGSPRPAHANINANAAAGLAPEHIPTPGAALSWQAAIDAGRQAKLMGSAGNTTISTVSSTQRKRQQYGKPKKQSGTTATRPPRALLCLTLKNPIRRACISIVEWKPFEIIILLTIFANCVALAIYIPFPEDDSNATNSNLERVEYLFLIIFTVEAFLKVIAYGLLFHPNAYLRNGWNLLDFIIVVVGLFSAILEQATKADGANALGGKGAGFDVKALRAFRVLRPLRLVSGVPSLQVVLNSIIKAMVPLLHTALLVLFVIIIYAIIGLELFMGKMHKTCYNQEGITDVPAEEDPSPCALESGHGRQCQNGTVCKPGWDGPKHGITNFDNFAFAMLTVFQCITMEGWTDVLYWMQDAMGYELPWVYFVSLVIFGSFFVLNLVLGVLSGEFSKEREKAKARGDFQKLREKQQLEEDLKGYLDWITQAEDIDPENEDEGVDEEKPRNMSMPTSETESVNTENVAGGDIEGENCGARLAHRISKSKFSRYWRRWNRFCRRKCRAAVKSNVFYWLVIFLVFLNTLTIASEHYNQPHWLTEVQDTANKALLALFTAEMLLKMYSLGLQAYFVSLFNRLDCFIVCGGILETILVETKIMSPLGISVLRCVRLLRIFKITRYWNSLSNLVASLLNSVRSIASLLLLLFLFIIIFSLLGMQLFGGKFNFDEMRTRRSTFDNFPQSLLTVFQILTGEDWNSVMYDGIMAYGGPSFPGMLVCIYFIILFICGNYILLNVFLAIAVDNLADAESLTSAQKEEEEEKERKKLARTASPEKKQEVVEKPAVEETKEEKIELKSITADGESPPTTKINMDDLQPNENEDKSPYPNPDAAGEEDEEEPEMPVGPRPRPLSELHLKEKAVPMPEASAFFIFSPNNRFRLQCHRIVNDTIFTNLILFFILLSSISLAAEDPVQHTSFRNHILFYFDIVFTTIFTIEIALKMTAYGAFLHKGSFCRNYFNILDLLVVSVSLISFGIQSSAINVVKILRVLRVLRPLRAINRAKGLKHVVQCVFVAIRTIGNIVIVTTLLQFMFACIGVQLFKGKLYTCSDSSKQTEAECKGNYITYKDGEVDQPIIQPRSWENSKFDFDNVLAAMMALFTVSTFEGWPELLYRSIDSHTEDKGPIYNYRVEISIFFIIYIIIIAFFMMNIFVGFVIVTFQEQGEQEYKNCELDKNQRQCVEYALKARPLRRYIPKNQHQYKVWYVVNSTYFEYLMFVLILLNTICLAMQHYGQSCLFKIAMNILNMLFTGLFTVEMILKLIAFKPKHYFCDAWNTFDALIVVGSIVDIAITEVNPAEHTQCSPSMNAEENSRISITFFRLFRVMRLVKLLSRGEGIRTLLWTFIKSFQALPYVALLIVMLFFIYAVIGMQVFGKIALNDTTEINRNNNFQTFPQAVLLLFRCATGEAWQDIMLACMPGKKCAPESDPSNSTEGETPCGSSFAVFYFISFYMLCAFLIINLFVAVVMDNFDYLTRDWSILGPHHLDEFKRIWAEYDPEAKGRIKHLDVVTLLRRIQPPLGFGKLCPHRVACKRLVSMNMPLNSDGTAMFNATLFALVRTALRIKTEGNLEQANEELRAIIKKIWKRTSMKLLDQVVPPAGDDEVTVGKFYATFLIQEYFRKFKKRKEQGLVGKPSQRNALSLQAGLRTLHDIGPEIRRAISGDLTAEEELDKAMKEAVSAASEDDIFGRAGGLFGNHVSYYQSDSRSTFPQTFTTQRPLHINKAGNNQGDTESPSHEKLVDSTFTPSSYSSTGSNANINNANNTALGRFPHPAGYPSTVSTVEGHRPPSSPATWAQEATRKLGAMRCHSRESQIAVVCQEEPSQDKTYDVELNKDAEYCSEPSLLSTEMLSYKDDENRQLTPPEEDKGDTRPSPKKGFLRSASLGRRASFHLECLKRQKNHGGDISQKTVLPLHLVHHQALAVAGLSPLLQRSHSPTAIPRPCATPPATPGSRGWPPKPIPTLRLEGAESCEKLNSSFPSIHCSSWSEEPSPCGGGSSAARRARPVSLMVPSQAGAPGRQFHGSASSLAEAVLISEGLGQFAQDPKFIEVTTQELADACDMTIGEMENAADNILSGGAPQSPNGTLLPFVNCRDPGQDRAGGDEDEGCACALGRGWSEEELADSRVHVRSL", "assay": "(§1) Inhibition of L-type calcium channel measured using whole-cell patch clamp in guinea pig ventricular myocytes", "assay_type": "functional, cell-based, Heart, Ventricular myocyte", "design": "ca sol conc 1 mM, temp room"}, "[3]": {"target": "T2, Voltage-dependent L-type calcium channel subunit alpha-1C", "assay": "as §1", "assay_type": "functional, cell-based, Heart, Ventricular myocyte", "design": "ca sol conc 1 mM, temp room", "remark": "listed apart in the source"}, "[4]": {"target": "T2, Voltage-dependent L-type calcium channel subunit alpha-1C", "assay": "as §1", "assay_type": "functional, cell-based, Heart, Ventricular myocyte", "design": "ca sol conc 0 mM, temp 36 C"}, "[5]": {"target": "T2, Voltage-dependent L-type calcium channel subunit alpha-1C", "assay": "as §1", "assay_type": "functional, cell-based, Heart, Ventricular myocyte", "design": "ca sol conc 1.8 mM, temp 36-37 C"}, "[6]": {"target": "T2, Voltage-dependent L-type calcium channel subunit alpha-1C", "assay": "as §1", "assay_type": "functional, cell-based, Heart, Ventricular myocyte", "design": "ca sol conc 1.8 mM, temp 20-22 C"}, "[7]": {"target": "T3, Voltage-dependent L-type calcium channel subunit alpha-1C (Rattus norvegicus, UniProt P22002)", "T3 sequence (P22002 whole entry)": "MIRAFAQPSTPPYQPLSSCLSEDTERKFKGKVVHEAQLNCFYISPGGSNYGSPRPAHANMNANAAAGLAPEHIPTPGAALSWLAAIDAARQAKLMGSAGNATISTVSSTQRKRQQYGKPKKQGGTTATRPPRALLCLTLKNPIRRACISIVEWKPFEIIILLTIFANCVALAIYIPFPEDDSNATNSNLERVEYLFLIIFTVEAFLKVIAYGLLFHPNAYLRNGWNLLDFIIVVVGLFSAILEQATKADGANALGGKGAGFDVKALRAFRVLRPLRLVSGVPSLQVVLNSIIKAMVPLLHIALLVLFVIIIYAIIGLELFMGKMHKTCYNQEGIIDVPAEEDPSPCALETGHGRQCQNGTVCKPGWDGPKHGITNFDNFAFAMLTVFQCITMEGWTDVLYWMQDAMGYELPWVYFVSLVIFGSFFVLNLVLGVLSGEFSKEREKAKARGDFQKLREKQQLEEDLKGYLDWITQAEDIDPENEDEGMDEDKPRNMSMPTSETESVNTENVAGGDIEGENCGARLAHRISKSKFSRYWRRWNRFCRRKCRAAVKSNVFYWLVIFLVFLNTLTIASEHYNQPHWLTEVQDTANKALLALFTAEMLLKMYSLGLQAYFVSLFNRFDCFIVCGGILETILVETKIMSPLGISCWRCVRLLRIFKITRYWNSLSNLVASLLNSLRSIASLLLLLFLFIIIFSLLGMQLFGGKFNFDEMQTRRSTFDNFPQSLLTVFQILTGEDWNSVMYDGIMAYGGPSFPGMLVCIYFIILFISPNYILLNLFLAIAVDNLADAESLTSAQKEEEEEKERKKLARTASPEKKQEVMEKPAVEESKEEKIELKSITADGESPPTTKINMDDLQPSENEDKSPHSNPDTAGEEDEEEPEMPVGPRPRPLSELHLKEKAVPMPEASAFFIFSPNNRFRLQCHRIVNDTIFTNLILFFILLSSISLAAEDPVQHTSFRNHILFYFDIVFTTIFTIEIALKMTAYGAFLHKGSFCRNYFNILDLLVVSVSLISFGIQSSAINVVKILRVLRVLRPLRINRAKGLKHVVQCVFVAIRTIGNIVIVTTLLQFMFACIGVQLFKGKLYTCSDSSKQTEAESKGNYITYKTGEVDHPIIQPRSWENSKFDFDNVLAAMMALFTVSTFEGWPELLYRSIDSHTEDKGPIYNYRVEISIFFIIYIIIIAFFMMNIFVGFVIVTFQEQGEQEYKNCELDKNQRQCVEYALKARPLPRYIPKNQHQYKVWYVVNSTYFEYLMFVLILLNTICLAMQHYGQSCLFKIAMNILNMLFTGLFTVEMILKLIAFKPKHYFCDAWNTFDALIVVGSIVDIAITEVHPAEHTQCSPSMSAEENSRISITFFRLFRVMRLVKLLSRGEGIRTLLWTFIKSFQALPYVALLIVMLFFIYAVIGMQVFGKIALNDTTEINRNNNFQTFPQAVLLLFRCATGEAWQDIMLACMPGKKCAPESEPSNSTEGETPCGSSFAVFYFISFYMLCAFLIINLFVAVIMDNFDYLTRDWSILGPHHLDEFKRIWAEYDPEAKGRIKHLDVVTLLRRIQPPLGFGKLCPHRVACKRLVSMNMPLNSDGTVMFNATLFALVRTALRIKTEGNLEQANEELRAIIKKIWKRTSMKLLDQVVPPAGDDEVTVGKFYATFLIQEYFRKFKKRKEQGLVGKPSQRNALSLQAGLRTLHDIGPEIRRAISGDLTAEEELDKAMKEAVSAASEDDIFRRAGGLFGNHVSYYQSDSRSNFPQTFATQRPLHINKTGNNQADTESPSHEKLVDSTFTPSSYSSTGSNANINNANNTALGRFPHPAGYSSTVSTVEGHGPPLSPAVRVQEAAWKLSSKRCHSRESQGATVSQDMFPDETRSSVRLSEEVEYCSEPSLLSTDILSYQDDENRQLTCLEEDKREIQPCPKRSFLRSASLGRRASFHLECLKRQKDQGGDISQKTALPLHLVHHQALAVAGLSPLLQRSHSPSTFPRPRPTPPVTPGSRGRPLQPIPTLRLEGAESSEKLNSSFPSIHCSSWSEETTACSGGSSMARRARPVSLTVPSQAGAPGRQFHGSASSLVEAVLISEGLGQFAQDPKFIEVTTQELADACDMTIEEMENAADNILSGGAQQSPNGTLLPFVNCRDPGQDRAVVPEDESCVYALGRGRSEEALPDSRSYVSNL", "assay": "(§2) Inhibition of L-type calcium channel measured using whole-cell patch clamp in rat ventricular myocytes", "assay_type": "functional, cell-based, Heart, Ventricular myocyte", "design": "ca sol conc 1 mM, temp 20-24 C"}, "[8]": {"target": "T3, Voltage-dependent L-type calcium channel subunit alpha-1C", "assay": "as §2", "assay_type": "functional, cell-based, Heart, Ventricular myocyte", "design": "ca sol conc 2 mM, temp room"}, "[9]": {"target": "T2, Voltage-dependent L-type calcium channel subunit alpha-1C", "assay": "as §1", "assay_type": "functional, cell-based, Heart, Ventricular myocyte", "design": "ca sol conc None mM, temp 36 C"}, "[10]": {"target": "T2, Voltage-dependent L-type calcium channel subunit alpha-1C", "assay": "as §1", "assay_type": "functional, cell-based, Heart, Ventricular myocyte", "design": "ca sol conc 1.8 mM, temp 36 C"}, "[11]": {"target": "T3, Voltage-dependent L-type calcium channel subunit alpha-1C", "assay": "as §2", "assay_type": "functional, cell-based, Heart, Ventricular myocyte", "design": "ca sol conc 2 mM, temp 36-37 C"}, "[12]": {"target": "T3, Voltage-dependent L-type calcium channel subunit alpha-1C", "assay": "as §2", "assay_type": "functional, cell-based, Heart, Ventricular myocyte", "design": "ca sol conc 2 mM, temp 36-37 C", "remark": "listed apart in the source"}, "[13]": {"target": "T2, Voltage-dependent L-type calcium channel subunit alpha-1C", "assay": "as §1", "assay_type": "functional, cell-based, Heart, Ventricular myocyte", "design": "ca sol conc 1.8 mM, temp room"}, "[14]": {"target": "T1, Voltage-dependent L-type calcium channel subunit alpha-1C", "assay": "(§3) Inhibition of L-type calcium channel measured using […] kidney cells heterologically expressing alpha-1C subunit", "assay_type": "functional, cell-based, HEK293", "design": "ca sol conc 0 mM, temp 21-24 C"}, "[15]": {"target": "T1, Voltage-dependent L-type calcium channel subunit alpha-1C", "assay": "as §3", "assay_type": "functional, cell-based, HEK293", "design": "ca sol conc 0 mM, temp room"}, "[16]": {"target": "T1, Voltage-dependent L-type calcium channel subunit alpha-1C", "assay": "as §3", "assay_type": "functional, cell-based, HEK293", "design": "ca sol conc 0 mM, temp room", "remark": "listed apart in the source"}, "[17]": {"target": "T3, Voltage-dependent L-type calcium channel subunit alpha-1C", "assay": "as §2", "assay_type": "functional, cell-based, Heart, Ventricular myocyte", "design": "ca sol conc 1 mM, temp 1 C"}, "[18]": {"target": "T3, Voltage-dependent L-type calcium channel subunit alpha-1C", "assay": "as §2", "assay_type": "functional, cell-based, Heart, Ventricular myocyte", "design": "ca sol conc 1.8 mM, temp 22-24 C"}, "[19]": {"target": "T1, Voltage-dependent L-type calcium channel subunit alpha-1C", "assay": "(§4) Inhibition of L-type calcium channel measured using 2-electrode voltage-clamp in Xenopus oocyte heterologically expressing alpha-1C subunit", "assay_type": "functional, cell-based", "design": "ca sol conc 0 mM, temp room"}, "[20]": {"target": "T1, Voltage-dependent L-type calcium channel subunit alpha-1C", "assay": "as §4", "assay_type": "functional, cell-based", "design": "ca sol conc 0 mM, temp room", "remark": "listed apart in the source"}, "[21]": {"target": "T2, Voltage-dependent L-type calcium channel subunit alpha-1C", "assay": "as §1", "assay_type": "functional, cell-based, Heart, Ventricular myocyte", "design": "ca sol conc 1 mM, temp 20 C"}, "[22]": {"target": "T2, Voltage-dependent L-type calcium channel subunit alpha-1C", "assay": "as §1", "assay_type": "functional, cell-based, Heart, Ventricular myocyte", "design": "ca sol conc 2 mM, temp room"}, "[23]": {"target": "T2, Voltage-dependent L-type calcium channel subunit alpha-1C", "assay": "as §1", "assay_type": "functional, cell-based, Heart, Ventricular myocyte", "design": "ca sol conc 0 mM, temp 20-25 C"}, "[24]": {"target": "T1, Voltage-dependent L-type calcium channel subunit alpha-1C", "assay": "as §3", "assay_type": "functional, cell-based, HEK293", "design": "ca sol conc 0 mM, temp 37 C"}},
  "data": [
    {"smiles": "CC1=C(C(=O)OCCCCCCCCCC[N+](C)(C)C)C(c2cccc3nonc23)C(C(=O)OC(C)C)=C(C)N1", "note": "(centres undefined)", "values": [
      {"measurement": "IC50", "setting": "[1]", "value": 0.07, "unit": "µM"}
    ]},
    {"smiles": "CCCC(=O)OCOC(=O)C1=C(C)NC(C)=C(C(=O)OC)C1c1cccc(Cl)c1Cl", "note": "(centres undefined) [CLEVIDIPINE]", "values": [
      {"measurement": "IC50", "setting": "[2]", "value": 0.0071, "unit": "µM"},
      {"measurement": "IC50", "setting": "[3]", "value": 0.0788, "unit": "µM"}
    ]},
    {"smiles": "Cc1cccc(C)c1N(CCCc1cccnc1)C(=O)[C@@H](C)N", "values": [
      {"measurement": "IC50", "setting": "[4]", "value": 55, "unit": "µM"}
    ]},
    {"smiles": "C=CCN1CCN(CC(C)(C)COC(=O)C2=C(C)NC(C)=C(C(=O)OC)C2c2cccc([N+](=O)[O-])c2)CC1", "note": "(centres undefined) [IGANIDIPINE]", "values": [
      {"measurement": "IC50", "setting": "[5]", "value": 0.009, "unit": "µM"}
    ]},
    {"smiles": "Cc1cccc(CCN2CCC(C(=O)c3ccc(NS(C)(=O)=O)cc3)CC2)n1", "values": [
      {"measurement": "IC50", "setting": "[6]", "value": 441, "unit": "µM"}
    ]},
    {"smiles": "CN(C)CCC=C1c2ccccc2CCc2ccccc21", "note": "[AMITRIPTYLINE]", "values": [
      {"measurement": "IC50", "setting": "[7]", "value": 23.2, "unit": "µM"},
      {"measurement": "IC50", "setting": "[8]", "value": 3.75, "unit": "µM"}
    ]},
    {"smiles": "CN(C)CCN1C(=O)c2ccccc2N(C)c2ccccc21", "note": "[DIBENZEPIN]", "values": [
      {"measurement": "IC50", "setting": "[7]", "value": 364, "unit": "µM"}
    ]},
    {"smiles": "COC(=O)C1=C(C)NC(C)=C(C(=O)OCC(C)C)C1c1ccccc1[N+](=O)[O-]", "note": "(centres undefined) [NISOLDIPINE]", "values": [
      {"measurement": "IC50", "setting": "[9]", "value": 0.73, "unit": "µM"},
      {"measurement": "IC50", "setting": "[10]", "value": 0.08, "unit": "µM"}
    ]},
    {"smiles": "CCCCC/C=C\\C/C=C\\C/C=C\\C/C=C\\CCCC(=O)O", "note": "[ARACHIDONIC ACID]", "values": [
      {"measurement": "IC50", "setting": "[11]", "value": 5.8, "unit": "µM"},
      {"measurement": "IC50", "setting": "[12]", "value": 8.5, "unit": "µM"}
    ]},
    {"smiles": "Clc1ccccc1C(c1ccccc1)(c1ccccc1)n1ccnc1", "note": "[CLOTRIMAZOLE]", "values": [
      {"measurement": "IC50", "setting": "[13]", "value": 20, "unit": "µM"},
      {"measurement": "IC50", "setting": "[14]", "value": 0.59, "unit": "µM"}
    ]},
    {"smiles": "CNCCCN1c2ccccc2CCc2ccccc21", "note": "[DESIPRAMINE]", "values": [
      {"measurement": "IC50", "setting": "[7]", "value": 11.7, "unit": "µM"}
    ]},
    {"smiles": "FC(F)(F)C(Cl)Br", "note": "(centres undefined) [HALOTHANE]", "values": [
      {"measurement": "IC50", "setting": "[15]", "value": 14500, "unit": "µM"},
      {"measurement": "IC50", "setting": "[16]", "value": 1800, "unit": "µM"}
    ]},
    {"smiles": "COc1ccc(C(C)=O)c(O)c1", "note": "[PAEONOL]", "values": [
      {"measurement": "IC50", "setting": "[17]", "value": 561, "unit": "µM"}
    ]},
    {"smiles": "O=c1c(-c2ccc(O)cc2)coc2cc(O)ccc12", "note": "[DAIDZEIN]", "values": [
      {"measurement": "IC50", "setting": "[18]", "value": 12, "unit": "µM"}
    ]},
    {"smiles": "COC(=O)C1=C(C)NC(C)=C(C(=O)OC2CCCN(Cc3ccccc3)C2)C1c1cccc([N+](=O)[O-])c1", "note": "(centres undefined) [BENIDIPINE]", "values": [
      {"measurement": "IC50", "setting": "[19]", "value": 13.8, "unit": "µM"},
      {"measurement": "IC50", "setting": "[20]", "value": 4.9, "unit": "µM"}
    ]},
    {"smiles": "CCCC(=O)N1CCCN(c2nc(N)c3cc(OC)c(OC)cc3n2)CC1", "note": "[BUNAZOSIN]", "values": [
      {"measurement": "IC50", "setting": "[5]", "value": 60, "unit": "µM"}
    ]},
    {"smiles": "CN(C)CCCC1(c2ccc(F)cc2)OCc2cc(C#N)ccc21", "note": "(centres undefined) [CITALOPRAM]", "values": [
      {"measurement": "IC50", "setting": "[7]", "value": 64.5, "unit": "µM"}
    ]},
    {"smiles": "CC(NCCC(c1ccccc1)c1ccccc1)c1ccccc1", "note": "(centres undefined) [FENDILINE]", "values": [
      {"measurement": "IC50", "setting": "[21]", "value": 17, "unit": "µM"}
    ]},
    {"smiles": "CC(C)Cn1c(=O)n(C)c(=O)c2[nH]cnc21", "note": "[ISOBUTYLMETHYLXANTHINE]", "values": [
      {"measurement": "IC50", "setting": "[14]", "value": 466, "unit": "µM"}
    ]},
    {"smiles": "COc1ccc([C@@H]2Sc3ccccc3N(CCN(C)CCc3ccc(OC)c(OC)c3)C(=O)[C@@H]2OC(C)=O)cc1", "values": [
      {"measurement": "IC50", "setting": "[22]", "value": 0.0257, "unit": "µM"}
    ]},
    {"smiles": "COCCOC(=O)C1=C(C)NC(C)=C(C(=O)OC(C)C)C1c1cccc([N+](=O)[O-])c1", "note": "(centres undefined) [NIMODIPINE]", "values": [
      {"measurement": "IC50", "setting": "[23]", "value": 0.3, "unit": "µM"}
    ]},
    {"smiles": "C[C@]12CC[C@@H]3c4ccc(O)cc4CC[C@H]3[C@@H]1CC[C@@H]2O", "note": "[ESTRADIOL]", "values": [
      {"measurement": "IC50", "setting": "[24]", "value": 50, "unit": "µM"}
    ]}
  ]
}
